In a melting point compilation (Tetko et al.; mined from patent text by program, amines drawn as free bases though some values may be those of a salt) one finds melting point data, which are given here for 62 compounds.

For orientation: melting point means the temperature of the solid-liquid transition. As for `N#Cc1ccc(N2CCCN(c3ccnc4sc(C(N)=O)c(N)c34)CC2)cc1`, the melting point was in the range of 151 to 153 °C.

With `c1cc(-c2nc(-c3cnccn3)n[nH]2)ccn1`, the melting point fell in the range of 251 to 252 °C.

`Cc1cc(C(=O)N2Cc3ccc(C(=O)N(CCO)CCO)n3Cc3ccccc32)ccc1-c1ccccc1C(F)(F)F` yielded a melting point of 127 to 130 °C.

Compound `CC(C)(C)c1ccc(Nc2cccc3c2C(=O)N(C2CCC(=O)NC2=O)C3=O)cc1` (configuration not stated) registered a melting point of 228 to 230 °C.

With `COC(=O)C1CCCc2c(noc2-c2ccc(Cl)cc2)C1` (configuration not stated), the melting point was in the range of 94 to 95 °C.

Regarding `O=C(Oc1ccc(Cl)cn1)c1cc2cc([N+](=O)[O-])ccc2oc1=O`, the melting point was 287 to 289 °C.

The compound `COc1ccc(C=O)c(OCC#N)c1` had a melting point of 96 to 101 °C.

The compound `Cc1[nH]c(S(C)(=O)=O)nc1-c1cc(C(C)(C)C)c(O)c(C(C)(C)C)c1` displayed a melting point of 235 to 237 °C.

In the case of `c1nc(Nc2ccc3[nH]ccc3c2)c2sc(-c3ccc(CNCCN4CCOCC4)cc3)cc2n1`, the melting point was 100 to 111 °C.

The compound `CC(C)Nc1ccc(C#Cc2cc(C(=O)Nc3ccc(CN4CCN(C)CC4)c(C(F)(F)F)c3)ccc2Cl)nn1` yielded a melting point of 133 to 134 °C.

The compound `COc1ccc2cc([C@H](C)C(=O)OCC(=O)O)ccc2c1` returned a melting point of 122 to 123 °C.

As to `CN(C)c1c([N+](=O)[O-])c(C(C)(C)C)nn1-c1c(Cl)cc(C(F)(F)F)cc1Cl`, the melting point lay in the range of 81 to 83 °C.

In the case of `ON=c1cc(-c2cc3sccc3cn2)oc2ccc(OCCc3ccc(F)cc3)cc12`, the melting point was in the range of 228 to 234 °C.

The compound `COc1cc(Br)c(C(C)=NOCc2ccc([N+](=O)[O-])cc2)cc1O` returned a melting point of 137 to 138 °C.

The compound `CCOC(=O)CN1CCN(c2cc3c(cc2Cl)c(=O)c(C(=O)O)cn3CC)CC1` registered a melting point of 230 to 232 °C.

Compound `COc1ccc(-c2cc3ccc(Cl)cc3[nH]c2=O)cc1` returned a melting point of 256 to 257 °C.

Take `CC(C)(Oc1ccc(C(=O)c2ccc(Cl)cc2)cc1)C(=O)Oc1ccc(I)cc1`: the melting point was 149 to 150 °C.

Compound `O=C1NC(=O)c2c1c(-c1ccccc1Cl)cc1c2cc(CO)n1CCCBr` displayed a melting point of 218 to 220 °C.

Turning to `CC(=O)NC[C@H]1CN(c2ccc(-n3nccc3-c3ccc(Br)cc3)c(F)c2)C(=O)O1`, the melting point lay in the range of 96.8 to 98.8 °C.

On to `O=c1[nH]c(N2CCC(N3CCCCC3)CC2)cc2ccccc12`, for which the melting point was > 200 °C.

`CC(C)C[C@H](NS(=O)(=O)c1cccnc1)C(=O)N[C@@H](C(C)C)[C@@H](O)c1c(-c2ccccc2)c1=O`: the melting point lay in the range of 110 to 112 °C.

For `O=C(O)C(O)c1cccc(COc2ccccc2Cl)c1COc1ccccc1Cl` (configuration not stated), the melting point fell in the range of 101 to 103 °C.

In turn, `CCOc1nn(-c2ccccn2)cc1CCCOc1cccc(OC(C)(C)C(=O)O)c1` showed a melting point of 99 to 101 °C.

Regarding `CC(C)c1cc(C(C)C)c(OS(=O)(=O)CC(=O)N(Cc2ccccc2)Cc2ccccc2)c(C(C)C)c1`, the melting point was 107 to 110 °C.

As for `Cc1ccccc1P(=NC(=O)OCc1cccnc1)(c1ccccc1)c1ccccc1`, the melting point was 142 to 143 °C.

Compound `Cc1ccc(Cl)nc1N1CCCNC1=C[N+](=O)[O-]` came in with a melting point of 176 to 183 °C.

In turn, `CCOC(=O)[C@@H]1CCC(=O)N1C(=O)OC(C)(C)C` registered a melting point of 48 to 49 °C.

Turning to `CNC(=O)N1CCSC1c1ccccc1OCCN1CCN(c2ccccc2)CC1` (configuration not stated), the melting point was in the range of 133 to 135 °C.

In turn, `N#CCCNC(=O)c1cccc(-c2ccc3ncn(Cc4ccc(Cl)cc4Cl)c3n2)c1` returned a melting point of 218 to 219 °C.

Compound `CN(C)C(=O)Nc1c(C(=O)c2occc2CO)[nH]c2cc(Cl)ccc12` gave a melting point of 238 °C.

For the compound `O=C(NCCCCOc1ccc(-n2ccnc2)cc1)c1ccc(Br)cc1`, the melting point was 140 to 141 °C.

`Cc1cc(-c2nn(C3CCCC3)c3c(F)cccc23)ccc1O`: the melting point turned out to be 107 °C.

In the case of `COC(=O)C(=O)Cc1ccc(SC)cc1`, the melting point lay within 112 to 113 °C.

The compound `Cc1c(NC(=O)c2ccc(OCCC(C)C)cc2F)ccc2cc(CN3CCCC3)cnc12` came in with a melting point of 131 °C.

In turn, `O=C1CCC(CCC(=O)OCc2cccc(Cl)c2)N1` (configuration not stated) returned a melting point of 90 to 91 °C.

In turn, `CCCn1cc(C2CCC(=O)CC2)c2cc(C#N)ccc21` came in with a melting point of 103 to 104 °C.

`COc1cc(OCc2cccnc2)ccc1/C=C/c1cc(/C=C/c2cc3ccccc3[nH]2)n[nH]1` registered a melting point of 126 to 138 °C.

For `O=C(c1cccs1)N(CCCSc1ccncc1)c1ccccc1`, the melting point is 66 to 67 °C.

`CCC(C)(CC)c1nnc(NC(=O)c2c(OC)cccc2OC)s1` showed a melting point of 208 to 210 °C.

In the case of `Nc1c(F)c(N2CCC(c3ccccn3)C2)c(F)c2c1c(=O)c(C(=O)O)cn2C1CC1` (configuration not stated), the melting point lay within 206 to 208 °C.

For the compound `CCOC(=O)/C=C/c1ccc(Cl)nn1`, the melting point was 106 to 110 °C.

In turn, `CCCCCCCOC(=O)Oc1ccc(-c2ccc(C#N)cc2)cc1` displayed a melting point of 50.2 to 50.5 °C.

Compound `COc1ccc(C=C2Oc3ccc(C(=O)O)cc3C2=O)c(OC)c1OC` returned a melting point of 247 to 249 °C.

In turn, `CCNc1ccc(NC(C)=O)c(C)c1` came in with a melting point of 102 to 103 °C.

As for `CC(=O)NC[C@H]1CN(c2ccc(N3CCC(O)(CN=[N+]=[N-])CC3)cc2)C(=O)O1`, the melting point lay within 134 to 136 °C.

`CS(=O)CCCn1cnc(-c2ccc(F)cc2)c1-c1ccncc1` (racemic) gave a melting point of 122 to 123 °C.

Take `CCNn1cc(C(=O)O)c(=O)c2cc(F)c(Cl)cc21`: the melting point stood at 258 °C.

As to `Cn1c(CC#N)ccc1C(=O)c1ccc(Br)cc1`, the melting point is 139 to 141 °C.

As for `CC12CCC(C(=Cc3ccc(CC(SSCC(=O)O)C(=O)O)cc3)C1=O)C2(C)C` (configuration not stated), the melting point is 116 °C.

Consider `Brc1cccc2nc(N3CCNCC3)ccc12`, for which the melting point lay within 94 to 96 °C.

As to `CN1CCc2c(CO)csc2C(c2ccccc2)C1` (configuration not stated), the melting point was 115 °C.

As for `O=C(O)c1cc(NCCCc2ccc([N+](=O)[O-])cc2)ccc1O`, the melting point lay in the range of 229 to 231 °C.

Consider `O=C(c1ccccc1O)c1ccc(O)c(Cl)c1Cl`, for which the melting point is 200 to 202 °C.

`COC(C)(CN(c1c(C)cccc1Cl)S(C)(=O)=O)OC` returned a melting point of 84 °C.

For `CCCSc1ncc(CC(N=C(c2ccccc2)c2ccccc2)C(=O)OCC)n1Cc1ccccc1Cl` (configuration not stated), the melting point lay in the range of 178 to 181 °C.

The compound `COc1cc(-c2nc3cc(OC)cc(OC)c3c(=O)[nH]2)cc(N2CCN(C(C)C)CC2)c1` returned a melting point of 212 to 213 °C.

`Nc1c(C(=O)c2cc(Cl)ccn2)[nH]c2cc(Cl)ccc12`: the melting point fell in the range of 234 to 235 °C.

In turn, `Cc1c(C#N)sc(N=Nc2c(NCC(C)O)nc(NCC(C)O)c(C#N)c2C)c1C#N` (configuration not stated) showed a melting point of 268 to 269 °C.

In the case of `COc1ccc(-c2nccn2N=Cc2ccccc2)cc1`, the melting point turned out to be 155 °C.

Consider `c1ccc(-c2ccc3cc(COc4ccc(CCCn5ccnc5)cc4)cnc3c2)cc1`, for which the melting point was in the range of 135 to 136 °C.

In the case of `CC1=C(c2cccc(C(F)(F)F)c2)n2ncc(C#N)c2N(C(=O)CCl)C1`, the melting point lay within 178 to 182 °C.

For the compound `Fc1ccc(Nc2ncnc3cc(-c4ccco4)ccc23)cc1Cl`, the melting point is > 250 °C.
